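Briefly, cells in 96-well plates were exposed to five compound concentrations for 48 h, and endpoints were estimated by linear interpolation. GI50 marks 50% less growth. The concentration for full growth arrest is given as TGI.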
What was measured:
Assay in all cases: inhibition of tumour cell growth, NCI panel, 48 h
MDA-MB-435 = test system: MDA-MB-435
HOP-92 NSCLC = test system: HOP-92 NSCLC
OVCAR-3 ovarian = test system: OVCAR-3 ovarian
HCC-2998 colon = test system: HCC-2998 colon
SF-268 CNS = test system: SF-268 CNS
TK-10 renal = test system: TK-10 renal
NCI-H522 lung = test system: NCI-H522 lung
SK-OV-3 ovarian = test system: SK-OV-3 ovarian
IGROV1 ovarian = test system: IGROV1 ovarian
OVCAR-8 ovarian = test system: OVCAR-8 ovarian

Row | Structure (SMILES) | GI50 (MDA-MB-435) [µM] | TGI (MDA-MB-435) [µM] | GI50 (HOP-92 NSCLC) [µM] | TGI (HOP-92 NSCLC) [µM] | GI50 (OVCAR-3 ovarian) [µM] | TGI (OVCAR-3 ovarian) [µM] | GI50 (HCC-2998 colon) [µM] | TGI (HCC-2998 colon) [µM] | GI50 (SF-268 CNS) [µM] | TGI (SF-268 CNS) [µM] | GI50 (TK-10 renal) [µM] | TGI (TK-10 renal) [µM] | GI50 (NCI-H522 lung) [µM] | TGI (NCI-H522 lung) [µM] | GI50 (SK-OV-3 ovarian) [µM] | TGI (SK-OV-3 ovarian) [µM] | GI50 (IGROV1 ovarian) [µM] | TGI (IGROV1 ovarian) [µM] | GI50 (OVCAR-8 ovarian) [µM] | TGI (OVCAR-8 ovarian) [µM]
1 | CC(C)c1c(C(=O)Nc2ccccc2)c(-c2ccccc2)c(-c2ccc(F)cc2)n1CC[C@@H](O)C[C@@H](O)CC(=O)O | 15.1 | > 100 | 0.211 | 2.14 | 33.1 | > 100 | 27.4 | > 71.5 | 6.64 | > 100 | 45.5 | > 100 | 3.73 | > 47.3 | 63.7 | > 100 | 22.2 | > 100 | 20.4 | > 100
2 | C=C(CN1CCc2ccccc2C1)c1ccc(C(=O)Nc2cccc(N)c2)cc1 | 14 | 31.9 | 63.9 | > 100 | 13.6 | 35.3 | 17.1 | 31.9 | 19 | 45.9 | 27.3 | 92.5 | 18 | 40.2 | 29.5 | 73.5 | 16 | 47.2 | 20.6 | 44.7
3 | COc1cccc(-c2cc(-c3ccc(Nc4nc(Nc5ccc(Cl)cc5)nc(Nc5ccc(Cl)cc5)n4)cc3)nc(N)c2C#N)c1 | 1.82 | 4.24 | 1.1 | 3.41 | 1.73 | 3.53 | 2.11 | 5.54 | 2.94 | 10.2 | 2.21 | 4.05 | 1.75 | 4.62 | 24.9 | > 63.9 | 1.67 | 4.62 | 3.51 | > 100
4 | COc1ncc(-c2ccc3nc(N)n(-c4ccccc4C(F)(F)F)c(=O)c3c2)cc1S(=O)(=O)Nc1ccc(F)cc1F | 1.11 | 4.28 | 0.432 | 94.5 | 0.369 | 3.75 | 1.74 | 13.7 | 2.43 | > 100 | 6.73 | > 100 | 3.04 | 24.5 | 4.85 | > 100 | 1.15 | > 100 | 3.55 | > 100
5 | Cc1ccc(CNc2ccc(Cl)cc2NCc2ccc(C)c(O)c2)cc1O | 6.7 | 13.1 | 6.91 | 14.2 | 7.15 | 13.9 | 8.96 | 16.6 | 7 | 14.2 | 8.4 | 15.5 | 6.59 | 13.9 | 8.24 | 15.2 | 8.66 | 18 | 8.66 | 18.4
6 | CC1(C)CC[C@]2(C(=O)O)CC[C@]3(C)C(=CC[C@@H]4[C@@]5(C)C/C(=C/c6cccnc6)[C@H](O)C(C)(C)[C@@H]5CC[C@]43C)[C@@H]2C1 | 15.2 | > 100 | 2.22 | 10.1 | 7.08 | 25.6 | 11.4 | 54.4 | 8.68 | > 100 | 21.7 | > 100 | 8.97 | > 100 | 19 | > 100 | 5.13 | > 100 | 9.47 | > 100
7 | CNC(=S)N/N=C/CSC/C=N/NC(=S)NC | > 100 | > 100 | > 100 | > 100 | > 56.9 | > 100 | > 100 | > 100 | > 100 | > 100 | > 100 | > 100 | > 100 | > 100 | > 100 | > 100 |  | > 100 | > 100 | > 100
8 | CCCN1CCCC(c2ccc(Nc3nc(Nc4cc(F)ccc4C(N)=O)c4cc[nH]c4n3)c(OC)c2)C1 (stereo not given) | 1.04 | 5.39 | 0.013 | 1.39 | 2.92 | 6 | 2.58 | 5.64 | 2.84 | 6.07 | 0.622 | 4.39 | 2.85 | 6.01 | 2.81 | 5.83 | 1.47 | 6.12 | 2.47 | 5.92
9 | CCn1nc(C#Cc2c(C)ccc3c(Nc4ccc(Cl)cc4)nccc23)c2c(N)ncnc21 | 1.08 | 4.57 | 1.79 | 9.06 | 3.46 | > 100 | 7.57 | > 100 | 5.36 | > 100 | 6.39 | > 100 | 2.39 | 86.9 | 4.38 | > 100 | 3.09 | > 100 | 4.35 | > 100
10 | CC/C(=C\c1ccc(N(C)C)cc1)c1ccncc1 | 1.68 | 7.51 | 1.89 | 9.94 | 4.13 | 29.7 | 6.58 | > 100 | 11.2 | > 100 | 12.9 | > 100 | 5.05 | > 100 | 7.87 | 53.3 | 5.47 | > 100 | 6.16 | > 100
11 | COc1cc2nc(NC3CCC3)nc(NC3CCN(C(C)C)CC3)c2cc1OC | 1.77 | 3.33 | 1.46 | 3.64 | 4.23 | 16.6 | 1.7 | 3.46 | 2.5 | 8.88 |  |  | 1.96 | 4.52 | 8 | 33.7 | 7.08 | 24 | 3.97 | 26.2
12 | CC(C)OC(=O)OCOP(=O)(OCOC(=O)OC(C)C)C1CCCN(O)C1=O (stereo not given) | 5.29 | > 100 | 0.566 | 7.91 | 1.47 | > 100 | 2.07 | 44.7 | 3.07 | > 100 | 1.54 | > 100 | 0.768 | > 100 | 1.84 | > 100 | 0.565 | 12.6 | 0.619 | > 100
13 | COC(=O)[C@@H](C)C[C@H](Cc1ccccc1)NC(=O)c1nc([C@@H](C[C@H](C(C)C)N(C)C(=O)[C@@H](NC(=O)[C@H]2CC(=O)CCN2C)C(C)C)OC(C)=O)sc1C(C)C | 0.0169 | 0.0921 | 0.119 | > 16.7 | 0.0542 | 0.62 | 0.141 | > 16 | 0.531 | > 16.7 | 1.43 | > 16.7 | 0.0549 |  | 0.809 | > 16.7 | 0.111 | > 13.5 | 0.48 | > 16.7
14 | COc1cc(F)c(F)c(F)c1C(=O)c1cnc(NC2CCN(S(C)(=O)=O)CC2)nc1N | 0.782 | 7.18 | 0.41 | 7.11 | 2.33 | > 19 | 2.87 | > 21.6 | 2.78 | > 18.9 | 1.6 | 24.7 | 5.56 | 15.6 | 11.6 | > 25 | 1.12 | 21 | 2.28 | > 25
15 | CN(C)CCCn1c2c(c3ccc(N4CCNCC4)cc3c1=O)C(=O)c1ccccc1-2 | 1.2 | 2.67 | 1.72 | 6.53 | 1.05 | 3.07 | 0.352 | 1.71 | 0.95 | 2.72 | 1.33 | 4.41 | 0.96 | 2.55 | 1.05 | 3.51 | 0.844 | 3.73 | 0.403 | 1.99
16 | OC1(c2ccccc2)c2ccccc2N(c2ccccc2)c2ccc(Cl)cc21 (stereo not given) | 0.213 | 0.631 | 0.214 | 0.703 | 0.147 | 0.304 | 0.258 | 0.795 | 0.311 | 1.14 | 0.3 | 1.01 | 0.161 | 0.433 | 0.608 | 1.39 | 0.341 | 1.15 | 0.287 | 1.25
17 | O=c1c2cc(F)ccc2sc2c(NCCCNCCO)nc3ccc(F)cc3c12 | 1.71 | 3.2 | 1.31 | 5.2 | 1.78 | 3.38 | 1.64 | 3.18 | 1.57 | 3.22 | 1.9 | 3.7 | 1.91 | 4.03 |  |  | 1.25 | 2.65 | 2.09 | 4.75
18 | O=C(c1ccco1)c1c(C(F)(F)F)n([O-])c2cc(Cl)c(Cl)cc2[n+]1=O | 0.877 | 1.81 | 0.851 | 2.15 | 0.0798 | 0.316 | 0.606 | 1.26 | 0.236 | 0.774 | 0.943 | 1.73 | 0.202 | 1.33 | 2.95 | 5.83 | 0.113 | 2.53 | 1.03 | 6.6
19 | CC(=O)O[C@@H]1[C@H]2O[C@H]2[C@H]2O[C@@]2(COC(=O)c2ccccc2)[C@H]1OC(C)=O |  | > 100 |  | > 100 |  | > 100 |  | > 100 |  | > 100 |  | > 100 |  | > 100 |  | > 100 |  | > 100 |  | > 100
20 | CCc1ccc2cc3c(ccc4ccccc43)c3c2c1CC3 | > 100 | > 100 | > 100 | > 100 | > 100 | > 100 | > 100 | > 100 | > 100 | > 100 | > 100 | > 100 | > 100 | > 100 | > 100 | > 100 | > 100 | > 100 | > 100 | > 100
21 | O=C(/C=C/c1c[nH]c2ccccc12)c1ccccc1O |  | 27.9 |  | 17.1 |  | 20.3 |  | 27.1 |  | 40 |  | 32.8 |  | 23 |  | 33 |  | 36.4 |  | 39.2
22 | Cc1n[nH]c(C)c1-c1c(C)n[nH]c1C | 1.93 | 4.82 | 1.17 | 2.99 | 1.6 | 3.05 | 1.96 | 3.82 | 2.28 | 6.91 | 2.89 | 7.2 | 1.66 | 3.63 |  |  | 1.8 | 4.3 | 2.09 | 9.79
23 | FC(F)(F)c1ccc(-c2cnc(-c3nn[nH]n3)nc2NC2CCCCCC2)cc1 | > 10 | > 10 | > 10 | > 10 | > 10 | > 10 | > 10 | > 10 | > 10 | > 10 | > 10 | > 10 | > 10 | > 10 | > 10 | > 10 | > 10 | > 10 | > 10 | > 10
24 | COc1cnc2c(c1)C(=O)c1c-2n(CCCN2CCNCC2)c(=O)c2cc(F)ccc12 | 0.578 | 2.01 | 0.139 | 2.95 | 0.335 | 1.63 | 1.05 | 2.56 | 0.282 | 1.86 | 0.267 | 1.43 | 0.118 | 1.35 | 0.21 | 0.916 | 0.478 | 2.34 | 0.126 | 1.25
25 | CC[C@@]12CC(C(=O)OC)=C3Nc4ccccc4[C@@]34CCN(C[C@H]3O[C@H]31)[C@@H]24 | 16.2 | 44.1 | 17.7 | > 100 | 78.5 | > 100 | > 100 | > 100 | > 100 | > 100 | > 100 | > 100 | 20.9 | > 100 |  |  | 52.3 | > 100 | > 100 | > 100
